In publication PMC9005681, “Use of AD Informer Set compounds to explore validity of novel targets in Alzheimer's disease pathology” (Alzheimer's & Dementia : Translational Research & Clinical …, 2022):
Values joined by “and” are separate entries in the source; they are usually repeats but may differ in a detail not shown here. Identical values can stand only once.

How the values were obtained:
Test in all cases: PDSP GPCR panel primary binding assays at 10 μM
[1] = biological target: T1, cloned human or rodent CNS receptors, channels, and transporters (PDSP panel) (Homo sapiens, UniProt P11229); conditions: primary assay
T1 construct: expressed in transfected cells
T1 sequence (P11229 1-460): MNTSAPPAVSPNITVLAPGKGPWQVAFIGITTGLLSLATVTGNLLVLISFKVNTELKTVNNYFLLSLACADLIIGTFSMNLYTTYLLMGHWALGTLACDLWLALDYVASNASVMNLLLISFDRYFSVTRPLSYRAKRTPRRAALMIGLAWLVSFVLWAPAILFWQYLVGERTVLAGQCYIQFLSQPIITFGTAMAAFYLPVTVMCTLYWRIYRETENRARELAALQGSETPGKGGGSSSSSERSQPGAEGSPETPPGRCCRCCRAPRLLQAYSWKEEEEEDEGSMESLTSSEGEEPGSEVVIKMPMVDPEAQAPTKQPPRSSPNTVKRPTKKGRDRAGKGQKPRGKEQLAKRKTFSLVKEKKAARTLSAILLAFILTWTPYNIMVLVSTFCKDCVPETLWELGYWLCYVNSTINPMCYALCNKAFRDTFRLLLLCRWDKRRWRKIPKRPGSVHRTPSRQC
Procedure, shortened: (§1)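 PDSP panel of 46–47 cloned human or rodent CNS receptors, channels and transporters; radioligand displacement by compound at 10 μM, in quadruplicate. Where average displacement exceeded 50%, secondary binding followed as 11-point dose-response in triplicate (none for H3, PBR or GABAA).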

[2] = biological target: T2, cloned human or rodent CNS receptors, channels, and transporters (PDSP panel) (Homo sapiens, UniProt P21917); conditions: Receptor D4, primary assay, 10 μM; for Mean %: mean of Inhibition 1-4
T2 construct: expressed in transfected cells
T2 sequence (P21917 1-419): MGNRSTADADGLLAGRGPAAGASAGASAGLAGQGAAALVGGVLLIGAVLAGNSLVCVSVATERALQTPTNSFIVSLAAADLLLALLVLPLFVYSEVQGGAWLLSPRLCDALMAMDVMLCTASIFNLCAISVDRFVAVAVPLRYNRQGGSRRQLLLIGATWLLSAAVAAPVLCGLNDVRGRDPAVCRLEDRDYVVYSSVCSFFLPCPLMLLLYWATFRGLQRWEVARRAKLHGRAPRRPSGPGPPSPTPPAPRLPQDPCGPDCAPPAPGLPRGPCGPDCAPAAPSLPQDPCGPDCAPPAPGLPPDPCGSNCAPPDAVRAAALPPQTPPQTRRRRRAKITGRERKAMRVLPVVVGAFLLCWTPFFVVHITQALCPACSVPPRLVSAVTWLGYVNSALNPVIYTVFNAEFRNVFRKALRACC
Procedure, shortened: as §1

[3] = biological target: T3, cloned human or rodent CNS receptors, channels, and transporters (PDSP panel) (Homo sapiens, UniProt P25021); conditions: primary assay
T3 construct: expressed in transfected cells
Procedure, shortened: as §1

[4] = biological target: T4, cloned human or rodent CNS receptors, channels, and transporters (PDSP panel) (Homo sapiens, UniProt P28223); conditions: Receptor 5-HT2A, primary assay, 10 μM; for Mean %: mean of Inhibition 1-4
T4 construct: expressed in transfected cells
Procedure, shortened: as §1

[5] = biological target: T5, cloned human or rodent CNS receptors, channels, and transporters (PDSP panel) (Homo sapiens, UniProt P35462); conditions: primary assay
T5 construct: expressed in transfected cells
Procedure, shortened: as §1

[6] = biological target: T6, cloned human or rodent CNS receptors, channels, and transporters (PDSP panel) (Homo sapiens, UniProt P41145); conditions: Receptor KOR, primary assay, 10 μM; for Mean %: mean of Inhibition 1-4
T6 construct: expressed in transfected cells
Procedure, shortened: as §1

[7] = biological target: T7, cloned human or rodent CNS receptors, channels, and transporters (PDSP panel) (Homo sapiens, UniProt P46098); conditions: Receptor 5-HT3, primary assay, 10 μM; for Mean %: mean of Inhibition 1-4
T7 construct: expressed in transfected cells
T7 sequence (P46098 24-478): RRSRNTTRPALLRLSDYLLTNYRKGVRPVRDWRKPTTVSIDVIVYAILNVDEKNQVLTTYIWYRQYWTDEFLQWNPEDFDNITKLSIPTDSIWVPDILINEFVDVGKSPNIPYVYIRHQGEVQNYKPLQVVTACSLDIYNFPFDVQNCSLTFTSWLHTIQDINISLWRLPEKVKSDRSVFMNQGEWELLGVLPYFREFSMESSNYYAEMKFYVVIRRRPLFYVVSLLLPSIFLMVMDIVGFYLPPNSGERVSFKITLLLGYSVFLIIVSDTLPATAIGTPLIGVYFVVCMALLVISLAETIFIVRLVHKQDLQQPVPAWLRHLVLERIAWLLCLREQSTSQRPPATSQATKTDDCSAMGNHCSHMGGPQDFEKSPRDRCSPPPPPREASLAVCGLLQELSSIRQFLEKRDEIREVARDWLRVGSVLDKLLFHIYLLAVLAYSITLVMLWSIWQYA
Procedure, shortened: as §1

[8] = biological target: T8, cloned human or rodent CNS receptors, channels, and transporters (PDSP panel) (Rattus norvegicus, UniProt P16257); conditions: Receptor PBR, primary assay, 10 μM
T8 construct: expressed in transfected cells
Procedure, shortened: as §1

T4 sequence (P28223 whole entry): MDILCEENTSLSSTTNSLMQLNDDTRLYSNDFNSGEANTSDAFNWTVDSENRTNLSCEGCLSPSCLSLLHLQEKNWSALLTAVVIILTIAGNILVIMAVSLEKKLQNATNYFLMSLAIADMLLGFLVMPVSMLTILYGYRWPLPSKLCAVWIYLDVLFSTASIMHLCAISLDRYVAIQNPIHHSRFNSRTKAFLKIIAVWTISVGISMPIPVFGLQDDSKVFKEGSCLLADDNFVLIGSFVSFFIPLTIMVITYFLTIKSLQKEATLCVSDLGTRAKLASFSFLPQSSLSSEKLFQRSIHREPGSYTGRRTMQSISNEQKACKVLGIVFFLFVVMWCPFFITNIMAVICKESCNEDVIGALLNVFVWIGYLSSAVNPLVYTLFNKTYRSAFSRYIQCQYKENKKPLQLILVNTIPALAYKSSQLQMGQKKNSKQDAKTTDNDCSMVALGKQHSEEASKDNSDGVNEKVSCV
T6 sequence (P41145 whole entry): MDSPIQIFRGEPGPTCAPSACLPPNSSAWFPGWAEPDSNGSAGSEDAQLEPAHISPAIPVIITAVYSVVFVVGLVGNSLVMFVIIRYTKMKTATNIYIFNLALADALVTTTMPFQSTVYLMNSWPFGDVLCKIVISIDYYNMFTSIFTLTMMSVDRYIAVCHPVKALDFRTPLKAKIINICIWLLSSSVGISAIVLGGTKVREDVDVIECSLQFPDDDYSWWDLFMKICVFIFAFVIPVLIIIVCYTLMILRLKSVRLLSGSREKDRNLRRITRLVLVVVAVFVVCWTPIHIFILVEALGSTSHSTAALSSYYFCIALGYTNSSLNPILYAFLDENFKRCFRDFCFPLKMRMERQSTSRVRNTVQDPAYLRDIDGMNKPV
T5 sequence (P35462 whole entry): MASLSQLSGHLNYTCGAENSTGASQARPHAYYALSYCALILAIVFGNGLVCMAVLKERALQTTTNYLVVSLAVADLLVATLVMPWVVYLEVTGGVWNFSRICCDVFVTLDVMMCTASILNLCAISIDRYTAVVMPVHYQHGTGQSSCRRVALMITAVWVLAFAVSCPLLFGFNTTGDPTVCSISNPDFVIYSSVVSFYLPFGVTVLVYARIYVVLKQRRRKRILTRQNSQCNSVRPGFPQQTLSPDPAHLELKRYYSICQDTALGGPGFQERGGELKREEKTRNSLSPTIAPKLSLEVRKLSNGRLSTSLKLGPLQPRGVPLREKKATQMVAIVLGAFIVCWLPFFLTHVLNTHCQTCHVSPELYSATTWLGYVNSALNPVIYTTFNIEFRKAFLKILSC
T3 sequence (P25021 whole entry): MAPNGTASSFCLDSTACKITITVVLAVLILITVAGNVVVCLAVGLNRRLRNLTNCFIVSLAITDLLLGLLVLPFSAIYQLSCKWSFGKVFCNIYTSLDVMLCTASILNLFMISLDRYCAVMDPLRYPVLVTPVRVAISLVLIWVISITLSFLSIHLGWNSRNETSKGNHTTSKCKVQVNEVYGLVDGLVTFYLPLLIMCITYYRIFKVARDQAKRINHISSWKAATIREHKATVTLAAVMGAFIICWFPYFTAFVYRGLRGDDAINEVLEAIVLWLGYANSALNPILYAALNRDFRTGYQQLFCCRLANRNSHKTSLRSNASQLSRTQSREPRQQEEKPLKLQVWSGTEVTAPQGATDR

Row | SMILES | Inhibition 1 [2] | Inhibition 2 [2] | Inhibition 3 [2] | Inhibition 4 [2] | Mean % [2] | Inhibition 1 [4] | Inhibition 2 [4] | Inhibition 3 [4] | Inhibition 4 [4] | Mean % [4] | Inhibition 1 [6] | Inhibition 2 [6] | Inhibition 3 [6] | Inhibition 4 [6] | Mean % [6] | Inhibition 1 [7] | Inhibition 2 [7] | Inhibition 3 [7] | Inhibition 4 [7] | Mean % [7] | further results
1 | c1cn2cc(-c3ccc4cn[nH]c4c3)nc(Nc3ccc(N4CCOCC4)cc3)c2n1 [UNC10302678A, Entospletinib (GS-9973)] | 5.16% | 7.36% | -2.39% | 2.39% | 3.13% | -1.01% | -14.98% | -19.59% | -10.22% | -11.45% | -28.1% | -33.36% | -49.37% | -45.23% | -39.02% | 20.59% | 12.98% | 21.06% | 14.69% | 17.33% | Inhibition 1 ([1]; Receptor M1, 10 μM): 19.66%; Inhibition 2 ([1]; Receptor M1, 10 μM): -3.67%; Inhibition 3 ([1]; Receptor M1, 10 μM): -8.18%; Inhibition 4 ([1]; Receptor M1, 10 μM): 2.73%; Mean % ([1]; Receptor M1, 10 μM, mean of Inhibition 1-4): 2.64%; Inhibition 1 ([3]; Receptor H2, 10 μM): 34.86%; Inhibition 2 ([3]; Receptor H2, 10 μM): 31.07%; Inhibition 3 ([3]; Receptor H2, 10 μM): 0.58%; Inhibition 4 ([3]; Receptor H2, 10 μM): -19.99%; Mean % ([3]; Receptor H2, 10 μM, mean of Inhibition 1-4): 11.63%; Inhibition 1 ([5]; Receptor D3, 10 μM): -22.2%; Inhibition 2 ([5]; Receptor D3, 10 μM): -12.17%; Inhibition 3 ([5]; Receptor D3, 10 μM): 0%; Inhibition 4 ([5]; Receptor D3, 10 μM): -11.01%; Mean % ([5]; Receptor D3, 10 μM, mean of Inhibition 1-4): -11.35%; Inhibition 1 [8]: 4.64% and -2.11%; Inhibition 4 [8]: 21.43% and 15.83%; Mean % ([8]; mean of Inhibition 1-4): 13.23% and 8.44%
2 | O=c1oc2ccccc2cc1-c1cn2cc(Cc3ccc(F)cc3)sc2n1 [UNC10302680A, iMDK] | -9.94% | -4.88% | -6.5% | 11.95% | -2.34% | 12.31% | -11.86% | -8.41% | 9.68% | 0.43% | -23.4% | -19.7% | -5.6% | -21.38% | -17.52% | 1.94% | 26.27% | 17.25% | 14.61% | 15.02% | Mean % ([1]; M1, mean inhibition): 7.01%; Inhibition 1 ([1]; M1, replicate 1): 16.84%; Inhibition 2 ([1]; M1, replicate 2): 2.54%; Inhibition 3 ([1]; M1, replicate 3): 0.66%; Inhibition 4 ([1]; M1, replicate 4): 8%; Mean % ([3]; H2, mean inhibition): 13.61%; Inhibition 1 ([3]; H2, replicate 1): 32.28%; Inhibition 2 ([3]; H2, replicate 2): 15.29%; Inhibition 3 ([3]; H2, replicate 3): 9.61%; Inhibition 4 ([3]; H2, replicate 4): -2.74%; Mean % ([5]; D3, mean inhibition): -15.93%; Inhibition 1 ([5]; D3, replicate 1): -10.82%; Inhibition 2 ([5]; D3, replicate 2): -16.8%; Inhibition 3 ([5]; D3, replicate 3): -16.41%; Inhibition 4 ([5]; D3, replicate 4): -19.69%
